{"source": "patent US20230203058A1", "about": "“MACROCYCLIC DIAMINE DERIVATIVES AS ENT INHIBITORS FOR THE TREATMENT OF CANCERS, AND COMBINATION THEREOF WITH ADENOSINE RECEPTOR ANTAGONISTS” (ITEOS BELGIUM SA, priority 2020, published 2023)", "tested_on": "stimulated primary human T cells", "experiment": "T cell proliferation assay (rescue of proliferation in presence of ATP, CFSE dilution)", "format": "cell-based", "settings": "100 uM ATP", "note": "Like-named read-outs stand apart in the source and are kept apart here.", "data": [{"smiles": "COc1cc(C(=O)O[C@H]2CCCOc3cc(cc(OC)c3OC)C(=O)OCCCN3CCCN(CC2)CC3)cc(OC)c1OC", "note": "[Compound 2, (12S)-74,75-dimethoxy-6-oxo-5,8-dioxa-1(1,4)-diazepana-7(1,3)-benzenacyclotetradecaphane-12-yl 3,4,5-trimethoxybenzoate]", "values": [{"measurement": "IC50", "setting": "Condition A: X-VIVO15, read-out: T Cell proliferation (Condition A) IC50", "value": "20 to 500", "unit": "nM"}, {"measurement": "IC50", "setting": "Condition B: X-VIVO15, 2% HSA and 0,1% AAG, read-out: (2) T Cell proliferation (Condition B) IC50", "value": "20 to 500", "unit": "nM"}]}]}
